Measurements taken from patent US20260193180A1, “AUTOPHAGY INDUCING COMPOUNDS AND USES THEREOF” (SAMSARA THERAPEUTICS INC., priority 2022, published 2026).

Experiments:
[1] = tested on: Human osteosarcoma U2OS cells; assay: Acidic vesicle formation (lysosome/autolysosome staining, LysoView 633 / LysoTracker Deep Red), stimulation of autophagy; format: cell-based; conditions: 24 hours
Method in brief: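 U2OS cells treated with compound for 24 h, then stained 45 min at 37° C with 1× LysoView 633 or 50 nM LysoTracker Deep Red plus Hoechst nuclei. Live-cell fluorescence images (Cy5/DAPI) scored for acidic vesicle formation relative to DMSO control.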

[2] = tested on: dopaminergic Tyrosine hydroxylase (TH)-positive neurons; assay: Cellular model of Parkinson's disease, MPP+ injury of primary mesencephalic culture; format: cell-based, rat; conditions: 0.5 μM, MPP+ 4 μM for 48 h
Procedure: This model (supplied by Neuro-Sys SAS, France) is based on a primary culture of dopaminergic Tyrosine hydroxylase (TH)-positive neurons injured with the dopaminergic neurons-specific toxin (DA-toxin) 1-methyl-4-phenyl-1,2,3,6 tetrahydropyridine (MPTP) (Dauer and Przedborski, 2003). Any substances reducing DA-toxin neurotoxicity may be useful as a new therapeutic agent for the treatment or prevention of PD.
Primary culture of mesencephalic neurons: Rat dopaminergic neurons were cultured as described by Visanji et al., 2008 and Callizot et al., 2019. Briefly, pregnant female rat (Wistar) of 15 days of gestation were killed using a deep anesthesia with CO2 chamber and a cervical dislocation. The midbrains obtained from 15-day-old rat embryos (Janvier, France) were dissected under a microscope. The embryonic midbrains will be removed and placed in ice-cold medium of Leibovitz (L15) containing 2% of Penicillin-Streptomycin (PS) and 1% of bovine serum albumin (BSA). The ventral portion of the mesencephalic flexure, a region of the developing brain rich in dopaminergic neurons, was used for the cell preparations.
The midbrains were dissociated by trypsinisation for 20 min at 37° C. (solution at a final concentration of 0.05% trypsin and 0.02% EDTA). The reaction was stopped by the addition of Dulbecco's modified Eagle's medium (DMEM) containing DNAase I grade II (0.5 mg/mL) and 10% of foetal calf serum (FCS). Cells were then mechanically dissociated by 3 passages through a 10 ml pipette. Cells were then centrifuged at 180×g for 10 min at +4° C. on a layer of BSA (3.5%) in L15 medium. The supernatant was discarded and the cell pellets re-suspended in a defined culture medium consisting of Neurobasal supplemented with B27 (2%), L-glutamine (2 mM) and 2% of PS solution and 10 ng/mL of Brain-derived neurotrophic factor (BDNF) and 1 ng/mL of Glial-Derived Neurotrophic Factor (GDNF). Viable cells were counted in a Neubauer cytometer using the trypan blue exclusion test. […]

[3] = Bioavailability / brain exposure in CD1 mice; format: in vivo; conditions: dose of 30 mg/kg
Procedure: The compounds have good properties for oral dosing and readily cross the blood brain barrier. For example, in CD1 mice, Compound 9 has a maximum concentration in brain plasma of 5067 ng/ml after 30 minutes at a dose of 30 mg/kg. Compound 12 has a maximum concentration in brain plasma of 5853 ng/ml after 8 hours at a dose of 30 mg/kg.

SMILES: CCOc1ccc(Cl)cc1CN1CC[C@@H](CN)C1.Cl [Compound 12, (S)-(1-(5-chloro-2-ethoxybenzyl)pyrrolidin-3-yl)methanamine hydrochloride]
- activation at 0.8 µM ([1]; 0.8 μM, read-out: Activity (percentage increase in acidic vesicle formation over the DMSO-treated control)): 30 to 50%
- activation at 10 µM ([1]; 10 μM, read-out: increase in acidic vesicle formation over the DMSO-treated control): ≥ 25%
- neurite network of TH positive neurons [2]: protected
- neuronal survival (total number of TH positive neurons) [2]: improved
- α-Synuclein aggregation in dopaminergic neurons [2]: reduced
- maximum concentration in brain plasma [3]: 5853 ng/mL
- time of maximum concentration in brain plasma [3]: 8 h
